pIC50: −log10 of the molar value.

The assay relates to PC3 cells. Nature of the assay: NAMPT Cell Proliferation Assay. The assay is classed as cell-based. The settings on record: Homo sapiens, PC-3, 120 h, 5 days incubation, cell viability by Cell Titer Glo. The essentials: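 Seeded at 500 cells/well in RPMI with 10% heat-inactivated FBS and left to attach overnight at 37° C, 5% CO2. Compounds were added as 10-fold dilutions […] for 5 days, then viability was read by CellTiter-Glo. IC50s came from sigmoidal fits of percent inhibition.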
With `Cc1ccc(S(=O)(=O)NCC(=O)N2CCC(c3ccc(NC(=O)C4CN(c5cccnn5)C4)cc3)CC2)cc1` [Example 418, N-[4-(1-{N-[(4-methylphenyl)sulfonyl]glycyl}piperidin-4-yl)phenyl]-1-(pyridazin-3-yl)azetidine-3-carboxamide], the negative-log IC50 (pIC50) is 8.08.

The compound `O=C(Nc1ccc(C2CCN(C(=O)Cc3cccc(F)c3F)CC2)cc1)C1CN(c2cccnn2)C1` [Example 419, N-(4-{1-[(2,3-difluorophenyl)acetyl]piperidin-4-yl}phenyl)-1-(pyridazin-3-yl)azetidine-3-carboxamide] had a pIC50 of 8.66.

`CO[C@H](C(=O)N1CCC(c2ccc(NC(=O)C3CN(c4cccnn4)C3)cc2)CC1)c1ccccc1` [Example 420, N-(4-{1-[(2S)-2-methoxy-2-phenylacetyl]piperidin-4-yl}phenyl)-1-(pyridazin-3-yl)azetidine-3-carboxamide]: the pIC50 was 8.63.

In the case of `O=C(Nc1ccc(C2CCN(C(=O)Cc3ccc4ccccc4c3)CC2)cc1)C1CN(c2cccnn2)C1` [Example 421, N-{4-[1-(naphthalen-2-ylacetyl)piperidin-4-yl]phenyl}-1-(pyridazin-3-yl)azetidine-3-carboxamide], the negative logarithm of the IC50 (pIC50) was 8.43.

On to `O=C(Nc1ccc(C2CCN(C(=O)CCc3ccccc3)CC2)cc1)C1CN(c2cccnn2)C1` [Example 422, N-{4-[1-(3-phenylpropanoyl)piperidin-4-yl]phenyl}-1-(pyridazin-3-yl)azetidine-3-carboxamide], for which the pIC50 was 8.95.

`O=C(Nc1ccc(C2CCN(C(=O)Cc3c(Cl)cccc3Cl)CC2)cc1)C1CN(c2cccnn2)C1` [Example 423, N-(4-{1-[(2,6-dichlorophenyl)acetyl]piperidin-4-yl}phenyl)-1-(pyridazin-3-yl)azetidine-3-carboxamide] showed a pIC50 of 9.42.

In turn, `O=C(Nc1ccc(C2CCN(C(=O)CCS(=O)(=O)c3ccccc3)CC2)cc1)C1CN(c2cccnn2)C1` [Example 424, N-(4-{1-[3-(phenylsulfonyl)propanoyl]piperidin-4-yl}phenyl)-1-(pyridazin-3-yl)azetidine-3-carboxamide] had a negative logarithm of the IC50 (pIC50) of 8.82.

`O=C(Nc1ccc(C2CCN(C(=O)c3ccsc3)CC2)cc1)C1CN(c2cccnn2)C1` [Example 425, 1-(pyridazin-3-yl)-N-{4-[1-(thiophen-3-ylcarbonyl)piperidin-4-yl]phenyl}azetidine-3-carboxamide] had a pIC50 of 9.04.

Turning to `Cc1cc(C(=O)N2CCC(c3ccc(NC(=O)C4CN(c5cccnn5)C4)cc3)CC2)c(C)o1` [Example 426, N-(4-{1-[(2,5-dimethylfuran-3-yl)carbonyl]piperidin-4-yl}phenyl)-1-(pyridazin-3-yl)azetidine-3-carboxamide], the pIC50 is 8.68.

On to `O=C(Nc1ccc(C2CCN(C(=O)CC3CC3)CC2)cc1)C1CN(c2cccnn2)C1` [Example 427, N-{4-[1-(cyclopropylacetyl)piperidin-4-yl]phenyl}-1-(pyridazin-3-yl)azetidine-3-carboxamide], for which the pIC50 is 8.69.

As to `O=C(Nc1ccc(C2CCN(C(=O)c3ccccc3F)CC2)cc1)C1CN(c2cccnn2)C1` [Example 428, N-{4-[1-(2-fluorobenzoyl)piperidin-4-yl]phenyl}-1-(pyridazin-3-yl)azetidine-3-carboxamide], the pIC50 was 9.72.

Compound `Cc1ccccc1C(=O)N1CCC(c2ccc(NC(=O)C3CN(c4cccnn4)C3)cc2)CC1` [Example 429, N-{4-[1-(2-methylbenzoyl)piperidin-4-yl]phenyl}-1-(pyridazin-3-yl)azetidine-3-carboxamide] had a pIC50 of 9.10.

`O=C(Nc1ccc(C2CCN(C(=O)c3cscn3)CC2)cc1)C1CN(c2cccnn2)C1` [Example 430, 1-(pyridazin-3-yl)-N-{4-[1-(1,3-thiazol-4-ylcarbonyl)piperidin-4-yl]phenyl}azetidine-3-carboxamide]: the pIC50 is 8.85.

Compound `O=C(Nc1ccc(C2CCN(C(=O)c3cncs3)CC2)cc1)C1CN(c2cccnn2)C1` [Example 431, 1-(pyridazin-3-yl)-N-{4-[1-(1,3-thiazol-5-ylcarbonyl)piperidin-4-yl]phenyl}azetidine-3-carboxamide] gave a pIC50 of 8.78.

`CCOCC(=O)N1CCC(c2ccc(NC(=O)C3CN(c4cccnn4)C3)cc2)CC1` [Example 432, N-{4-[1-(ethoxyacetyl)piperidin-4-yl]phenyl}-1-(pyridazin-3-yl)azetidine-3-carboxamide]: the pIC50 is 8.10.

Consider `O=C(Nc1ccc(C2CCN(C(=O)CCC(F)(F)F)CC2)cc1)C1CN(c2cccnn2)C1` [Example 433, 1-(pyridazin-3-yl)-N-{4-[1-(4,4,4-trifluorobutanoyl)piperidin-4-yl]phenyl}azetidine-3-carboxamide], for which the negative logarithm of the IC50 (pIC50) was 8.24.

Regarding `Cc1ccc(C(=O)N2CCC(c3ccc(NC(=O)C4CN(c5cccnn5)C4)cc3)CC2)cn1` [Example 434, N-(4-{1-[(6-methylpyridin-3-yl)carbonyl]piperidin-4-yl}phenyl)-1-(pyridazin-3-yl)azetidine-3-carboxamide], the pIC50 is 8.20.

The compound `O=C(Nc1ccc(C2CCN(C(=O)c3ccccc3)CC2)cc1)C1CN(c2cccnn2)C1` [Example 435, N-[4-(1-benzoylpiperidin-4-yl)phenyl]-1-(pyridazin-3-yl)azetidine-3-carboxamide] gave a pIC50 of 9.52.

`O=C(Nc1ccc(C2CCN(C(=O)c3ccco3)CC2)cc1)C1CN(c2cccnn2)C1` [Example 436, N-{4-[1-(furan-2-ylcarbonyl)piperidin-4-yl]phenyl}-1-(pyridazin-3-yl)azetidine-3-carboxamide]: the pIC50 is 9.17.

Compound `CC1(C(=O)N2CCC(c3ccc(NC(=O)C4CN(c5cccnn5)C4)cc3)CC2)CCCCC1` [Example 437, N-(4-{1-[(1-methylcyclohexyl)carbonyl]piperidin-4-yl}phenyl)-1-(pyridazin-3-yl)azetidine-3-carboxamide] had a pIC50 of 9.01.

Take `CC(=O)C(=O)N1CCC(c2ccc(NC(=O)C3CN(c4cccnn4)C3)cc2)CC1` [Example 438, N-{4-[1-(2-oxopropanoyl)piperidin-4-yl]phenyl}-1-(pyridazin-3-yl)azetidine-3-carboxamide]: the pIC50 was 8.71.

The compound `O=C(Nc1ccc(C2CCN(C(=O)C3CCCC3)CC2)cc1)C1CN(c2cccnn2)C1` [Example 439, N-{4-[1-(cyclopentylcarbonyl)piperidin-4-yl]phenyl}-1-(pyridazin-3-yl)azetidine-3-carboxamide] showed a pIC50 of 8.47.

On to `CCC(=O)N1CCC(c2ccc(NC(=O)C3CN(c4cccnn4)C3)cc2)CC1` [Example 440, N-[4-(1-propanoylpiperidin-4-yl)phenyl]-1-(pyridazin-3-yl)azetidine-3-carboxamide], for which the pIC50 was 8.74.

Turning to `Cc1ccc(C(=O)N2CCC(c3ccc(NC(=O)C4CN(c5cccnn5)C4)cc3)CC2)cc1` [Example 441, N-{4-[1-(4-methylbenzoyl)piperidin-4-yl]phenyl}-1-(pyridazin-3-yl)azetidine-3-carboxamide], the pIC50 was 8.17.

With `O=C(Nc1ccc(O[C@@H]2CCN(C(=O)c3ccccc3Cl)C2)cc1)C1CN(c2ccnnc2)C1` [Example 442, N-(4-{[(3R)-1-(2-chlorobenzoyl)pyrrolidin-3-yl]oxy}phenyl)-1-(pyridazin-4-yl)azetidine-3-carboxamide], the pIC50 is 8.20.

Compound `O=C(Nc1ccc(O[C@@H]2CCN(C(=O)c3nccs3)C2)cc1)C1CN(c2ccnnc2)C1` [Example 443, 1-(pyridazin-4-yl)-N-(4-{[(3R)-1-(1,3-thiazol-2-ylcarbonyl)pyrrolidin-3-yl]oxy}phenyl)azetidine-3-carboxamide] had a pIC50 of 8.25.

In the case of `O=C(Nc1ccc(O[C@@H]2CCN(C(=O)CC3CC3)C2)cc1)C1CN(c2ccnnc2)C1` [Example 444, N-(4-{[(3R)-1-(cyclopropylacetyl)pyrrolidin-3-yl]oxy}phenyl)-1-(pyridazin-4-yl)azetidine-3-carboxamide], the negative-log IC50 (pIC50) is 7.11.

Compound `CC[C@H](C)C(=O)N1CC[C@@H](Oc2ccc(NC(=O)C3CN(c4ccnnc4)C3)cc2)C1` [Example 445, N-[4-({(3R)-1-[(2S)-2-methylbutanoyl]pyrrolidin-3-yl}oxy)phenyl]-1-(pyridazin-4-yl)azetidine-3-carboxamide] showed a pIC50 of 7.72.

In turn, `O=C(Nc1ccc(O[C@@H]2CCN(C(=O)C3CCOCC3)C2)cc1)C1CN(c2ccnnc2)C1` [Example 446, 1-(pyridazin-4-yl)-N-(4-{[(3R)-1-(tetrahydro-2H-pyran-4-ylcarbonyl)pyrrolidin-3-yl]oxy}phenyl)azetidine-3-carboxamide] showed a pIC50 of 6.97.

With `O=C(Nc1ccc(O[C@@H]2CCN(C(=O)Cc3ccc(OC(F)(F)F)cc3)C2)cc1)C1CN(c2ccnnc2)C1` [Example 447, 1-(pyridazin-4-yl)-N-(4-{[(3R)-1-{[4-(trifluoromethoxy)phenyl]acetyl}pyrrolidin-3-yl]oxy}phenyl)azetidine-3-carboxamide], the pIC50 is 6.04.

The compound `O=C(Nc1ccc(O[C@@H]2CCN(C(=O)c3ccsc3)C2)cc1)C1CN(c2ccnnc2)C1` [Example 448, 1-(pyridazin-4-yl)-N-(4-{[(3R)-1-(thiophen-3-ylcarbonyl)pyrrolidin-3-yl]oxy}phenyl)azetidine-3-carboxamide] gave a pIC50 of 8.03.

`O=C(Nc1ccc(O[C@@H]2CCN(C(=O)Cc3ccc(F)cc3)C2)cc1)C1CN(c2ccnnc2)C1` [Example 449, N-[4-({(3R)-1-[(4-fluorophenyl)acetyl]pyrrolidin-3-yl}oxy)phenyl]-1-(pyridazin-4-yl)azetidine-3-carboxamide] had a pIC50 of 6.17.

`O=C(Nc1ccc(O[C@@H]2CCN(C(=O)Cc3cc(F)cc(F)c3)C2)cc1)C1CN(c2ccnnc2)C1` [Example 450, N-[4-({(3R)-1-[(3,5-difluorophenyl)acetyl]pyrrolidin-3-yl}oxy)phenyl]-1-(pyridazin-4-yl)azetidine-3-carboxamide] gave a pIC50 of 7.29.

(Values after patent US20130303509A1, “NAMPT INHIBITORS” (AbbVie Inc., priority 2012, published 2013).)
